US8669243B2, “Steroid-derived cyclopamine analogs and methods for using the same in the prevention or treatment of cancer” (The Wistar Institute, priority 2007, dated 2014)
Entries after “also recorded” stand apart in the source; their conditions may differ.

Legend:
Format in all cases: cell-based
[1] = test system: granule neuron precursors (GNPs) purified from postnatal mouse cerebella; experiment: SHH-induced granule neuron precursor (GNP) proliferation, BrdU incorporation; parameters: inhibition of SHH-induced GNP proliferation (percentage BrdU positive): dose or concentration left out as unconfirmed; conditions: for inhibition of SHH-induced GNP proliferation (BrdU-positive cells): 10 μM, SHH 600 ng/ml, FIG. 2; for inhibition of SHH-induced GNP proliferation (percentage BrdU positive): BrdU 6 hours before fixation, FIG. 5
Experimental: Purified GNPs were either not treated (CTR, n=4) or treated with SHH (600 ng/ml (n=4), alone or in combination with cyclopamine (10 μM, n=4), tomatidine (10 μM, n=4), analog 18 (10 μM, n=4) or estrone 15 (10 μM, n=2). BrdU-positive cells were counted with a fluorescent microscope using a 20× objective, wherein at least ten independent fields for each culture condition were counted per culture condition.
It has previously been shown that SHH is a potent mitogen for granule neuron precursors (GNPs) purified from postnatal mouse cerebella (Dahmane & Ruiz I Altaba (1999) Development 126:3089-3200). This well-established system was used to test the instant steroid-derived cyclopamine analogs for their activity in inhibiting this proliferative response of GNPs to SHH. […] GNPs were purified from postnatal day 5 (P5) mouse cerebella, plated on poly-D-lysine in serum-free DMEM-F12 and treated with either SHH alone or SHH plus the analogs. Treatment with SHH and cyclopamine was used as a control for inhibition.
GNPs were purified from postnatal day 5 (P5) mouse cerebella and treated with either SHH alone, or SHH in combination with cyclopamine, analog 33, or analog 37, each used at […]. BrdU was added to the media 6 hours before fixation. Percentage of brdU positive was determined following counting with a fluorescence microscope using a 20× objective (AXIOSKOP, ZEISS). At least five independent fields for each culture condition were counted. The analysis was performed on three independent experiments. Statistical analysis was performed with the Student t test.

[2] = test system: SHH-induced GLI-luciferase activity in SHH-Light2 cells; experiment: SHH-Light2 GLI-dependent firefly luciferase reporter assay
Experimental: Shh-Light2 cells were seeded at 70% confluency in 24 wells, 24 hours prior to treatment. They were then cultured for an additional 48 hours in standard serum-containing media prior to analysis. GLI-binding site luciferase activities were measured using the luciferase reporter assay system with the luciferase kit (PROMEGA).
SHH-light2 cells were treated with SHH (600 ng/ml, R&D) alone or in combination with cyclopamine (CYC), analog 33 or analog 37. CYC, analog 33 and analog 37 were used at […].
One screen involved examining the activation of the SHH pathway using the well-established cell line, SHH-Light2 cells. This cell line is a 3T3 clone that stably expresses a GLI-dependant firefly luciferase (Taipale, et al. (2000) Nature 406:1005-1009). […] Concentrations of each analog, ranging from 20 μM to 2.5 μM, were tested. SHH-Light2 cells were seeded 24 hours prior to treatment. They were then cultured for an additional 48 hours in standard serum-containing media prior to analysis. GLI-binding site luciferase activities were measured using a commercially available luciferase reporter assay system.
The activity of analogs 33 and 37 on the SHH signaling pathway was analyzed using the SHH-Light2 cells described herein.

[3] = test system: human medulloblastoma DAOY cells; experiment: DAOY cell survival, colorimetric MTT assay; conditions: 72 hours treatment; FIG. 6
Experimental: DAOY cells were treated for 72 hours with either cyclopamine (CYC), analog 33 or analog 37 before cell survival was assayed with a colorimetric MTT assay. Absorbance at 570 nm is directly proportional to the number of living cells.
Abnormal activation of the SHH signaling pathway has been linked to various cancers including medulloblastoma, a malignancy of the cerebellum with the highest incidence of all human pediatric malignant brain tumors. A subset of these tumors is thought to arise from deregulation of GNP development in the cerebellum and require SHH signaling for their growth. It was therefore tested whether analogs 33 and 37 were also efficient in reducing the viability of medulloblastoma cells using human medulloblastoma DAOY cells.

SMILES | inhibition of SHH-induced GNP proliferation (BrdU-positive cells) [1] | inhibition of SHH signaling activity (GLI-luciferase) ([2]; SHH 600 ng/ml, FIG. 4) | inhibition of SHH-induced GNP proliferation (percentage BrdU positive) [1] | cell survival / viability of DAOY cells (absorbance at 570 nm) [3] | inhibition of SHH-induced activation of GLI-dependant firefly luciferase ([2]; 2.5 μM, recombinant SHH (200 ng), FIG. 1C) | inhibition of SHH-induced activation of GLI-dependant firefly luciferase ([2]; 5 μM, recombinant SHH (200 ng), FIG. 1B) | inhibition of SHH-induced activation of GLI-dependant firefly luciferase ([2]; 10 μM, recombinant SHH (200 ng), FIG. 1A) | inhibition of SHH-induced reporter activity ([2]; 5 μM, recombinant SHH (200 ng), 48 hours, FIGS. 3 and 4)
C[C@H]1CC[C@]2(NC1)O[C@H]1C[C@H]3[C@@H]4CC[C@H]5C[C@@H](O)CC[C@]5(C)[C@H]4CC[C@]3(C)[C@H]1[C@@H]2C [tomatidine, reference compound] | had no effect |  |  |  |  |  |  | 
C[C@]12CC[C@@H]3c4ccc(O)cc4CC[C@H]3[C@@H]1CC[C@@]21C[C@@H]([C@H]2CCCN2)O1 [compound 37] |  | strong inhibition of SHH signaling activity comparable to that of cyclopamine | as potent as cyclopamine; also recorded: blocked | significant decrease of cell survival; also recorded: active in reducing DAOY cells viability |  |  |  | 
C[C@]12CC[C@@H]3c4ccc(O)cc4CC[C@H]3[C@@H]1CC[C@@]21Cc2ncccc2O1 [compound 18] | as potent as cyclopamine |  |  |  | inhibited SHH activity comparable to cyclopamine | inhibited SHH activity comparable to cyclopamine | effectively inhibited SHH activity | 
CC1=C2C[C@H]3[C@@H](CC=C4C[C@@H](O)CC[C@@]43C)[C@@H]2CC[C@]12O[C@@H]1C[C@H](C)CN[C@H]1[C@H]2C [cyclopamine] | significantly decreased cell proliferation |  | blocked | significant decrease of cell survival |  |  |  | largely blocked
